Reference: publication PMC6560211, “ApoAI-derived peptide increases glucose tolerance and prevents formation of atherosclerosis in mice” (Diabetologia, 2019)
No end group written: not given here.

How the values were obtained:
[1] = Peptide solubility by HPLC; type: physicochemical; settings: reconstituted RG54 peptide; assayed using HPLC
Method: Peptide (lyophilised powder) produced by Red Glead (Lund, Sweden) was reconstituted in Milli-Q water and then either used directly or mixed in a 1:1 ratio with 6 mol/l guanidine HCl in 2× PBS to give a monodisperse solution, followed by desalting using a column equilibrated with PBS, pH 7.4, using ÄKTAxpress fast protein LC (GE Healthcare, Uppsala, Sweden). Peptide integrity was analysed using circular dichroism spectroscopy. Peptide solubility was assayed at Red Glead using HPLC. Peptide stability in physiologic buffer or blood plasma (human or mouse) over 2 h was assayed at the Science for Life Laboratory (Uppsala, Sweden). For detailed methods, please refer to the electronic supplementary material (ESM) Methods.
The peptide RG54 was synthesised with natural amino acids and then modified with an acetylation cap on the N-terminus in order to reduce the susceptibility for proteolytic degradation by […] (ESM Fig. 3a). […] Peptide integrity following the denaturation/refolding procedure was confirmed using gel electrophoresis and circular dichroism spectroscopy analyses (ESM Fig. 3d,e) and by peptide stability assays (buffer or plasma) (ESM Fig. 3f).

Apoe−/− mice = assay: Atherosclerosis model, western diet; type: in vivo, mouse; settings: female Apoe−/− mice, i.p. three times a week for 6 weeks, RG54 12 mg/kg, ApoA-I 14 mg/kg, liraglutide 0.3 mg/kg, Oil Red O, n=9, vs NaCl
Text: Female Apoe^−/− mice (002052, Jackson Laboratory, Bar Harbor, ME, USA) at 12 weeks of age were acclimatised for 1 week, then changed to the RD western diet (D12079B) and injected i.p. three times per week for 6 weeks with treatments as indicated in ESM Fig. 1. At the end of the experimental period, the mice were euthanised and whole aortas were collected, fixed and stained for analysis. See ESM Methods for more details.
Apoe^−/− mice, which develop aortic atherosclerosis, were used to test if RG54 reduces the formation of atherosclerotic plaques in vivo. Apoe^−/− mice were obtained at 12 weeks of age and acclimatised for 1 week, after which baseline body weights, dual-energy x-ray absorptiometry body scans and serum samples were collected. […] Serum lipid profiles were measured at the start and end of the experimental period (ESM Fig. 5).
Fig. 2 Effect of ApoA-I or RG54 treatment on early, low-burden atherosclerotic lesion development in Apoe^−/− mice. […] (a) Body weight was measured weekly (n=9). […] (d–f) After euthanasia the aortic arch and abdominal aorta were removed, fixed and prepared en face, then atherosclerotic plaques were stained using Oil Red O. Representative aorta images (d) shown as raw images and images analysed for Oil Red O stained areas. […] Stained areas were then quantified to give the total plaque area (e) and total plaques per aorta (f) (n=9). […]

Q: With “Ac-AEYHAKATEHLSTLSEKAKPALEDLRQGLLPVLESFKVSFLSALEEYTKKLNTQ [RG54]” as the substance, how does the solubility [1] read?
A: > 3000 µg/mL

Q: What about the “number of plaques per mouse” value (Apoe−/− mice) of the same substance?
A: significantly reduced

Q: And the “total plaque area (percentage of the aortic surface)” value (Apoe−/− mice)?
A: significantly reduced
